Experimental data taken from patent US20250270190A1, “KIT INHIBITORS” (BLUEPRINT MEDICINES CORPORATION, priority 2022, published 2025).
Counter-ions that a name gives are not always drawn.

The molecules below were run against T1, c-kit autophosphorylation (Phospho c-Kit Tyr721) in HMC 1.1 (exon 11/13) cells, V654A (Homo sapiens, UniProt P10721, V560G/V654A) (assay: pKIT Meso Scale Discovery (MSD) assay, inhibition of autophosphorylation of KIT, HMC1.1_V654A). Details: Table 1, cell line not named for Table 1, b1056 names pKIT HMC1.1_V654A, read-out: Code (IC50 for inhibition of autophosphorylation of KIT, pKIT MSD assay).
T1 construct: endogenous in cells; host or cells: HMC 1.1 (exon 11/13) cells
T1 sequence (P10721 26-976 V560G/V654A): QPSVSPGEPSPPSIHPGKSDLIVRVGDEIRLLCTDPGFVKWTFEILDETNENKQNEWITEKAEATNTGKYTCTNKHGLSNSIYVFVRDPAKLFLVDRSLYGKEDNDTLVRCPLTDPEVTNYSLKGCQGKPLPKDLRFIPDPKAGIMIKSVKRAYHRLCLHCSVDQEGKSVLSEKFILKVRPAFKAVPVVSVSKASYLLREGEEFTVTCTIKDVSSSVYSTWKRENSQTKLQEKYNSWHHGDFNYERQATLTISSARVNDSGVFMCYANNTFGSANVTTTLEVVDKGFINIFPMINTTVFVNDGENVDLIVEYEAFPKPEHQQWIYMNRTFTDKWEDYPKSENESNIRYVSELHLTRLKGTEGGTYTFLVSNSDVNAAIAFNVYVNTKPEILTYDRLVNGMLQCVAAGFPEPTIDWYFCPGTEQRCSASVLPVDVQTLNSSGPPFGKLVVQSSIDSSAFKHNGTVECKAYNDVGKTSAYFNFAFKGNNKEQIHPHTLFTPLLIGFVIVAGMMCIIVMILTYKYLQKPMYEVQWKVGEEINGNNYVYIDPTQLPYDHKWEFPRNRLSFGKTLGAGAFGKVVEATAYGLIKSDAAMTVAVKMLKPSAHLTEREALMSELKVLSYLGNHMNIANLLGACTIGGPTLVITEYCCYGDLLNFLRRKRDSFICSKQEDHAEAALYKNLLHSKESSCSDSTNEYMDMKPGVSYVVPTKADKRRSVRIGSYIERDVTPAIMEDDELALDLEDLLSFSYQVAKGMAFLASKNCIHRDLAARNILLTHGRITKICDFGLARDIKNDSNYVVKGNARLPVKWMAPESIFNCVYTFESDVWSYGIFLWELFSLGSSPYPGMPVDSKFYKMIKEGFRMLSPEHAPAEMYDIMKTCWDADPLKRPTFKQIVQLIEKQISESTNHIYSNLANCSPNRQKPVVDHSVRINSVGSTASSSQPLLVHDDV
Assay type: cell-based
Summary of the method: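 HMC1.1 cells were serum-starved for 4 h in serum-free, iron-free, phenol red-free IMDM, then treated with compound in dose-response for 90 min at 37 °C. Staurosporine and DMSO served as controls. Lysates were analysed by MSD electrochemiluminescence immunoassay for phospho-c-Kit Tyr721, and % inhibition of autophosphorylation was derived.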

| Structure (SMILES) | IC50 |
| --- | --- |
| COc1cc(Nc2cc(N)nc(C(F)F)n2)ncc1-c1cnn(C2CN(C)C2)c1 [Compound 103, 2-(difluoromethyl)-N4-(4-methoxy-5-(1-(1-methylazetidin-3-yl)-1H-pyrazol-4-yl)pyridin-2-yl)pyrimidine-4,6-diamine] | < 10 nM |
| CCOc1cc(Nc2cc(N)nc(C(F)F)n2)ncc1-c1cnn(CCN)c1 [Compound 81, N4-(5-(1-(2-aminoethyl)-1H-pyrazol-4-yl)-4-ethoxypyridin-2-yl)-2-(difluoromethyl)pyrimidine-4,6-diamine] | 10 to 40 nM |
| CCOc1cc(Nc2cc(N)nc(C(F)F)n2)ncc1-c1cnn(C2CNC2)c1 [Compound 98, N4-(5-(1-(azetidin-3-yl)-1H-pyrazol-4-yl)-4-ethoxypyridin-2-yl)-2-(difluoromethyl)pyrimidine-4,6-diamine] | 10 to 40 nM |
| Nc1cc(Nc2cc(NC3CC3)c(C(=O)NC3CC3)cn2)nc(C(F)F)n1 [Compound 57, 6-((6-amino-2-(difluoromethyl)pyrimidin-4-yl)amino)-N-cyclopropyl-4-(cyclopropylamino)nicotinamide] | < 10 nM |
| COc1cc(Nc2cc(N)nc(C(F)F)n2)ncc1-c1cnn(CC2CCO2)c1 (stereo not shown) [Compound 111, 2-(difluoromethyl)-N4-(4-methoxy-5-(1-(oxetan-2-ylmethyl)-1H-pyrazol-4-yl)pyridin-2-yl)pyrimidine-4,6-diamine] | < 10 nM |
| CCOc1cc(Nc2cc(N)nc(C(F)F)n2)ncc1-c1cnn(CCNC)c1 [Compound 119, 2-(difluoromethyl)-N4-(4-ethoxy-5-(1-(2-(methylamino)ethyl)-1H-pyrazol-4-yl)pyridin-2-yl)pyrimidine-4,6-diamine] | < 10 nM |
| CCNc1cc(Nc2cc(N)nc(C(F)F)n2)ncc1C(=O)NCc1cocn1 [Compound 113, 6-((6-amino-2-(difluoromethyl)pyrimidin-4-yl)amino)-4-(ethylamino)-N-(oxazol-4-ylmethyl)nicotinamide] | < 10 nM |
| CNC(=O)c1cnc(Nc2cc(N)nc(C(F)F)n2)cc1NCC(C)C [Compound 43, 6-((6-amino-2-(difluoromethyl)pyrimidin-4-yl)amino)-4-(isobutylamino)-N-methylnicotinamide] | < 10 nM |
| CCCNC(=O)c1cnc(Nc2cc(N)nc(C(F)F)n2)cc1NC1CC1 [Compound 62, 6-((6-amino-2-(difluoromethyl)pyrimidin-4-yl)amino)-4-(cyclopropylamino)-N-propylnicotinamide] | 10 to 40 nM |
| Cn1cc(-c2cnc(Nc3cc(N)nc(C(F)F)n3)cc2OCC2CCO2)cn1 (stereo not shown) [Compound 105, 2-(difluoromethyl)-N4-(5-(1-methyl-1H-pyrazol-4-yl)-4-(oxetan-2-ylmethoxy)pyridin-2-yl)pyrimidine-4,6-diamine] | 10 to 40 nM |
| CNCCn1cc(-c2cnc(Nc3cc(N)nc(C(F)F)n3)cc2OC2CC2)cn1 [Compound 136, N4-(4-cyclopropoxy-5-(1-(2-(methylamino)ethyl)-1H-pyrazol-4-yl)pyridin-2-yl)-2-(difluoromethyl)pyrimidine-4,6-diamine] | < 10 nM |
| COc1cc(Nc2cc(N)nc(C(F)F)n2)ncc1-c1cnn(C2CC(O)C2)c1 (stereo not shown) [Compound 112, 3-(4-(6-((6-amino-2-(difluoromethyl)pyrimidin-4-yl)amino)-4-methoxypyridin-3-yl)-1H-pyrazol-1-yl)cyclobutan-1-ol] | 10 to 40 nM |
| CNC(=O)c1cnc(Nc2cc(N)nc(C(F)F)n2)cc1NC1COC1 [Compound 42, 6-((6-amino-2-(difluoromethyl)pyrimidin-4-yl)amino)-N-methyl-4-(oxetan-3-ylamino)nicotinamide] | 10 to 40 nM |
| CNC(=O)c1cnc(Nc2cc(N)nc(CF)n2)cc1NC [Compound 1, 6-((6-amino-2-(fluoromethyl)pyrimidin-4-yl)amino)-N-methyl-4-(methylamino)nicotinamide] | 10 to 40 nM |
| CNC(=O)c1cnc(Nc2cc(N)nc(C(F)F)n2)cc1NC1CCOC1 (stereo not shown) [Compound 64, 6-((6-amino-2-(difluoromethyl)pyrimidin-4-yl)amino)-N-methyl-4-((tetrahydrofuran-3-yl)amino)nicotinamide] | 10 to 40 nM |
| [2H]C([2H])([2H])NC(=O)c1cnc(Nc2cc(N)nc(C(F)F)n2)cc1NC [Compound 6, 6-((6-amino-2-(difluoromethyl)pyrimidin-4-yl)amino)-N-(methyl-d3)-4-(methylamino)nicotinamide] | 10 to 40 nM |
| COc1cc(Nc2cc(N)nc(C(F)F)n2)ncc1-c1cnn(C(F)F)c1 [Compound 70, 2-(difluoromethyl)-N4-(5-(1-(difluoromethyl)-1H-pyrazol-4-yl)-4-methoxypyridin-2-yl)pyrimidine-4,6-diamine] | < 10 nM |
| CNC(=O)c1cnc(Nc2cc(N)nc(C(F)F)n2)cc1N[C@H](C)C(F)F [Compound 73, (R)-6-((6-amino-2-(difluoromethyl)pyrimidin-4-yl)amino)-4-((1,1-difluoropropan-2-yl)amino)-N-methylnicotinamide] | < 10 nM |
| CNC(=O)c1cnc(Nc2cc(N)nc([C@@H](C)F)n2)cc1NC(C)C [Compound 20, (R)-6-((6-amino-2-(1-fluoroethyl)pyrimidin-4-yl)amino)-4-(isopropylamino)-N-methylnicotinamide] | > 40 nM |

Now from value to molecule:

| IC50 | Structure (SMILES) |
| --- | --- |
| < 10 nM | Nc1cc(Nc2cc(OC3CC3)c(-c3cnn([C@@H]4CCOC4)c3)cn2)nc(C(F)F)n1 (single isomer, unassigned) [Compound 165, (R)—N4-(4-cyclopropoxy-5-(1-(tetrahydrofuran-3-yl)-1H-pyrazol-4-yl)pyridin-2-yl)-2-(difluoromethyl)pyrimidine-4,6-diamine or (S)—N4-(4-cyclopropoxy-5-(1-(tetrahydrofuran-3-yl)-1H-pyrazol-4-yl)pyridin-2-yl)-2-(difluoromethyl)pyrimidine-4,6-diamine] |
| 10 to 40 nM | CN1CC(n2cc(-c3cnc(Nc4cc(N)nc(C(F)F)n4)cc3OC[C@@H]3CCCO3)cn2)C1 [Compound 201, (S)-2-(difluoromethyl)-N4-(5-(1-(1-methylazetidin-3-yl)-1H-pyrazol-4-yl)-4-((tetrahydrofuran-2-yl)methoxy)pyridin-2-yl)pyrimidine-4,6-diamine] |
| < 10 nM | CN[C@@H](C)Cn1cc(-c2cnc(Nc3cc(N)nc(C(F)F)n3)cc2OC(F)(F)F)cn1 (single isomer, unassigned) [Compound 195, (S)-2-(difluoromethyl)-N4-(5-(1-(2-(methylamino)propyl)-1H-pyrazol-4-yl)-4-(trifluoromethoxy)pyridin-2-yl)pyrimidine-4,6-diamine or (R)-2-(difluoromethyl)-N4-(5-(1-(2-(methylamino)propyl)-1H-pyrazol-4-yl)-4-(trifluoromethoxy)pyridin-2-yl)pyrimidine-4,6-diamine] |
| < 10 nM | Cn1cc(-c2cnc(Nc3cc(N)nc(C(F)F)n3)cc2OCc2cccc(N)c2)cn1 [Compound 178, N4-(4-((3-aminobenzyl)oxy)-5-(1-methyl-1H-pyrazol-4-yl)pyridin-2-yl)-2-(difluoromethyl)pyrimidine-4,6-diamine] |
| < 10 nM | CNC(C)(C)Cn1cc(-c2cnc(Nc3cc(N)nc(C(F)F)n3)cc2OC(F)F)cn1 [Compound 193, N4-(4-(difluoromethoxy)-5-(1-(2-methyl-2-(methylamino)propyl)-1H-pyrazol-4-yl)pyridin-2-yl)-2-(difluoromethyl)pyrimidine-4,6-diamine] |
| < 10 nM | CC(C)Nc1cc(Nc2cc(N)nc(C(F)F)n2)ncc1C(=O)NCc1ncco1 [Compound 148, 6-((6-amino-2-(difluoromethyl)pyrimidin-4-yl)amino)-4-(isopropylamino)-N-(oxazol-2-ylmethyl)nicotinamide] |
| < 10 nM | CNC(C)(C)Cn1cc(-c2cnc(Nc3cc(N)nc(C(F)F)n3)cc2OC(F)(F)F)cn1 [Compound 200, 2-(difluoromethyl)-N4-(5-(1-(2-methyl-2-(methylamino)propyl)-1H-pyrazol-4-yl)-4-(trifluoromethoxy)pyridin-2-yl)pyrimidine-4,6-diamine] |
| < 10 nM | Nc1cc(Nc2cc(NC3CC3)c(C(=O)NCc3ccccn3)cn2)nc(C(F)F)n1 [Compound 153, 6-((6-amino-2-(difluoromethyl)pyrimidin-4-yl)amino)-4-(cyclopropylamino)-N-(pyridin-2-ylmethyl)nicotinamide] |
| < 10 nM | CC(C)(O)Cn1cc(-c2cnc(Nc3cc(N)nc(C(F)F)n3)cc2OC2CC2)cn1 [Compound 173, 1-(4-(6-((6-amino-2-(difluoromethyl)pyrimidin-4-yl)amino)-4-cyclopropoxypyridin-3-yl)-1H-pyrazol-1-yl)-2-methylpropan-2-ol] |
| > 40 nM | Nc1cc(Nc2cc(OC3COC3)c(-c3cnn(C4CNC4)c3)cn2)nc(C(F)F)n1 [Compound 168, N4-(5-(1-(azetidin-3-yl)-1H-pyrazol-4-yl)-4-(oxetan-3-yloxy)pyridin-2-yl)-2-(difluoromethyl)pyrimidine-4,6-diamine formate] |
| > 40 nM | CN1CC(n2cc(-c3cnc(Nc4cc(N)nc(C(F)F)n4)cc3OC3COC3)cn2)C1 [Compound 183, 2-(difluoromethyl)-N4-(5-(1-(1-methylazetidin-3-yl)-1H-pyrazol-4-yl)-4-(oxetan-3-yloxy)pyridin-2-yl)pyrimidine-4,6-diamine] |
| < 10 nM | Nc1cc(Nc2cc(OC3CC3)c(-c3cnn(C[C@H]4CCN4)c3)cn2)nc(C(F)F)n1 (single isomer, unassigned) [Compound 161, (R)-N4-(5-(1-(azetidin-2-ylmethyl)-1H-pyrazol-4-yl)-4-cyclopropoxypyridin-2-yl)-2-(difluoromethyl)pyrimidine-4,6-diamine or (S)-N4-(5-(1-(azetidin-2-ylmethyl)-1H-pyrazol-4-yl)-4-cyclopropoxypyridin-2-yl)-2-(difluoromethyl)pyrimidine-4,6-diamine] |
